These results are taken from patent publication US8580785B2, “Insecticides” (Syngenta Crop Protection LLC, priority 2005, dated 2013).

Series [1] has as its system Spodoptera littoralis. In words: Activity against Spodoptera littoralis. The format is in vivo. The note with it: 72 h, 400 ppm spray on young soya plants, 1st instar caterpillars, 3 days, read-out: percentage reduction in the population and in the feeding damage (% activity). The method, then: Young soya plants are sprayed with an aqueous emulsion spray mixture comprising 400 ppm of active ingredient and, after the spray coating has dried on, populated with 10 caterpillars (1st instar) of Spodoptera littoralis and introduced into a plastic container. 3 days later, the percentage reduction in the population and in the feeding damage (% activity) are determined by comparing the number of dead caterpillars and the feeding damage between the treated and untreated plants.

For series [2], the system named is Plutella xylostella. Briefly: Activity against Plutella xylostella. Format: in vivo. The note with it: 72 h, 400 ppm spray on young cabbage plants, 3rd instar caterpillars, 3 days, read-out: percentage reduction in the population and in the feeding damage (% activity). As for the experimental part:
Young cabbage plants are sprayed with an aqueous emulsion spray mixture comprising 400 ppm of active ingredient and, after the spray coating has dried on, populated with 10 caterpillars (3rd instar) of Plutella xylostella and introduced into a plastic container. 3 days later, the percentage reduction in the population and in the feeding damage (% activity) are determined by comparing the number of dead caterpillars and the feeding damage between the treated and untreated plants.

The test system of series [3] is Diabrotica balteata. Briefly: Activity against Diabrotica balteata (sprayed maize seedlings). Format: in vivo. The following applies: 144 h, 400 ppm spray on maize seedlings, 2nd instar larvae, 6 days, read-out: percentage reduction in the population (% activity). As for the experimental part:
Maize seedlings are sprayed with an aqueous emulsion spray mixture comprising 400 ppm of active ingredient and, after the spray coating has dried on, populated with 10 larvae (2nd instar) of Diabrotica balteata and introduced into a plastic container. 6 days later, the percentage reduction in the population (% activity) is determined by comparing the number of dead larvae between the treated and untreated plants.

The subject of series [4] is Myzus persicae. Briefly: Systemic insecticide test for Myzus persicae. Format: in vivo. The note with it: roots of infected pea seedlings in 400 ppm spray mixture, 20°, 3 and 6 days, read-out: percentage reduction in the population (% activity). As for the experimental part: Pea seedlings are infected with Myzus persicae, and their roots are subsequently placed into a spray mixture comprising 400 ppm of active ingredient. The seedlings are then incubated at 20°. 3 and 6 days later, the percentage reduction in the population (% activity) is determined by comparing the number of dead aphids between the treated and untreated plants.

Bounds are passed on as bounds.

`COC1=NC2C=C(C(=O)NCC3CC3)C(NC(=O)c3cc(C(F)(F)F)nn3-c3ncccc3Cl)=C(Cl)C2S1` (stereo not shown) [Compound T115.1.14, 7-chloro-6-{[2-(3-chloro-pyridin-2-yl)-5-trifluoromethyl-2H-pyrazole-3-carbonyl]-amino}-2-methoxy-3a,7a-dihydro-benzothiazole-5-carboxylic acid cyclopropylmethyl-amide]: the inhibition at 400 ppm in series [1] and in series [2] was over 80% each time.

On to `CSC1=NC2C=C(C(=O)NCC3CC3)C(NC(=O)c3cc(C(F)(F)F)nn3-c3ncccc3Cl)=C(Cl)C2S1` (stereo not shown) [Compound T94.1.14, 7-chloro-6-{[2-(3-chloro-pyridin-2-yl)-5-trifluoromethyl-2H-pyrazole-3-carbonyl]-amino}-2-methylsulfanyl-3a,7a-dihydro-benzothiazole-5-carboxylic acid cyclopropylmethyl-amide], for which the melting point (as a rule, the temperature, or range, at which the solid turns liquid) is 221 to 223 °C. Besides, the inhibition at 400 ppm in series [1] is over 80%. In series [2], the inhibition at 400 ppm is over 80%.

With `O=C(NCC1CC1)c1cc2[nH]cnc2c(Cl)c1NC(=O)c1cc(C(F)(F)F)nn1-c1ncccc1Cl` [Compound T21.1.14], the melting point fell in the range of 198 to 201 °C. Further, in series [2], the inhibition at 400 ppm is over 80%.

For the compound `CC(C)NC(=O)c1cc2nsnc2c(Cl)c1NC(=O)c1cc(C(F)(F)F)nn1-c1ncccc1Cl` [Compound T20.1.8, 7-chloro-6-{[2-(3-chloro-pyridin-2-yl)-5-trifluoromethyl-2H-pyrazole-3-carbonyl]-amino}-benzo[1,2,5]thiadiazole-5-carboxylic acid isopropylamide], the inhibition at 400 ppm in series [1] and in series [2] was over 80% throughout.

Compound `CNC(=O)c1cc2nc(C(F)(F)F)ccc2c(Cl)c1NC(=O)c1cc(C(F)(F)F)nn1-c1ncccc1Cl` [Compound T8.1.2, 5-Chloro-6-{[2-(3-chloro-pyridin-2-yl)-5-trifluoromethyl-2H-pyrazole-3-carbonyl]-amino}-2-trifluoromethyl-quinoline-7-carboxylic acid methyl amide] yielded a melting point of 233 to 237 °C. Besides, in series [1], the inhibition at 400 ppm was over 80%. For the same compound, in series [2], the inhibition at 400 ppm is over 80%. The inhibition at 400 ppm in series [3] was over 80%.

As for `Cn1c(C2CC2)nc2cc(C(=O)NCC3CC3)c(NC(=O)c3cc(C(F)(F)F)nn3-c3ncccc3Cl)c(Cl)c21` [Compound T37.1.14], the melting point lay in the range of 233 to 235 °C. The inhibition at 400 ppm in series [1] is over 80%. Moreover, in series [2], the inhibition at 400 ppm was over 80%.

Turning to `O=C(NCC1CC1)c1cc2nsnc2c(Cl)c1NC(=O)c1cc(C(F)(F)F)nn1-c1ncccc1Cl` [Compound T20.1.14, 7-chloro-6-{[2-(3-chloro-pyridin-2-yl)-5-trifluoromethyl-2H-pyrazole-3-carbonyl]-amino}-benzo[1,2,5]thiadiazole-5-carboxylic acid cyclopropylmethyl-amide], the inhibition at 400 ppm in series [1] and in series [2] was over 80% in each case.

The compound `CNC(=O)c1cc2nc(C(F)(F)F)ccc2cc1NC(=O)c1cc(Br)nn1-c1ncccc1Cl` [Compound T8.1.153, 6-{[5-Bromo-2-(3-chloro-pyridin-2-yl)-2H-pyrazole-3-carbonyl]-amino}-2-trifluoromethyl-quinoline-7-carboxylic acid methyl amide] yielded a melting point of 120 to 127 °C. For the same compound, the inhibition at 400 ppm in series [1] is over 80%. In addition, in series [2], the inhibition at 400 ppm was over 80%.

`CC(C)NC(=O)c1cc2[nH]cnc2c(Cl)c1NC(=O)c1cc(C(F)(F)F)nn1-c1ncccc1Cl` [Compound T21.1.8, 7-chloro-6-{[2-(3-chloro-pyridin-2-yl)-5-trifluoromethyl-2H-pyrazole-3-carbonyl]-amino}-3H-benzoimidazole-5-carboxylic acid isopropylamide] showed a melting point of 200 to 203 °C. In addition, in series [1], the inhibition at 400 ppm is over 80%. For the same compound, the inhibition at 400 ppm in series [2] was over 80%.

Compound `CC(C)NC(=O)c1cc2ncn(C)c2c(Cl)c1NC(=O)c1cc(C(F)(F)F)nn1-c1ncccc1Cl` [Compound T22.1.8, 7-chloro-6-{[2-(3-chloro-pyridin-2-yl)-5-trifluoromethyl-2H-pyrazole-3-carbonyl]-amino}-1-methyl-1H-benzoimidazole-5-carboxylic acid isopropylamide] returned a melting point of 150 to 155 °C. Also, in series [1], the inhibition at 400 ppm is over 80%. Further, in series [2], the inhibition at 400 ppm is over 80%. In series [3], the inhibition at 400 ppm was over 80%.

In turn, `CNC(=O)c1cc2nc(C(F)(F)F)ccc2c(C)c1NC(=O)c1cc(C(F)(F)F)nn1-c1ncccc1Cl` [Compound T8.1.1, 6-{[2-(3-Chloro-pyridin-2-yl)-5-trifluoromethyl-2H-pyrazole-3-carbonyl]-amino}-5-methyl-2-trifluoromethyl-quinoline-7-carboxylic acid methyl amide] showed a melting point of 227 to 230 °C. Also, in series [1], the inhibition at 400 ppm was over 80%. In series [2], the inhibition at 400 ppm is over 80%. Also, the inhibition at 400 ppm in series [3] is over 80%.

With `CC(C)NC(=O)c1cc2nc(C3CC3)n(C)c2c(Cl)c1NC(=O)c1cc(C(F)(F)F)nn1-c1ncccc1Cl` [Compound T37.1.8, 7-chloro-6-{[2-(3-chloro-pyridin-2-yl)-5-trifluoromethyl-2H-pyrazole-3carbonyl]-amino}-2-cyclopropyl-1-methyl-1H-benzoimidazole-5-carboxylic acid isopropylamide], the melting point fell in the range of 242 to 244 °C. In addition, in series [1], the inhibition at 400 ppm was over 80%. Besides, the inhibition at 400 ppm in series [2] is over 80%.

For `Cc1nc2cc(C(=O)NC(C)C)c(NC(=O)c3cc(C(F)(F)F)nn3-c3ncccc3Cl)c(Cl)c2n1C` [Compound T35.1.8, 7-chloro-6-{[2-(3-chloro-pyridin-2-yl)-5-trifluoromethyl-2H-pyrazole-3-carbonyl]-amino}-1,2-dimethyl-1H-benzoimidazole-5-carboxylic acid isopropylamide], the melting point is 248 to 250 °C. Also, the inhibition at 400 ppm in series [4] was over 80%. Moreover, in series [1], the inhibition at 400 ppm was over 80%. In addition, the inhibition at 400 ppm in series [2] is over 80%.

On to `CNC(=O)c1cc2[nH]cnc2c(Cl)c1NC(=O)c1cc(C(F)(F)F)nn1-c1ncccc1Cl`, for which the melting point lay in the range of 190 to 192 °C.

For the compound `Cn1cnc2cc(C(=O)NCC3CC3)c(NC(=O)c3cc(C(F)(F)F)nn3-c3ncccc3Cl)c(Cl)c21` [Compound T22.1.14], the melting point fell in the range of 148 to 151 °C. The inhibition at 400 ppm in series [1] is over 80%. Moreover, in series [2], the inhibition at 400 ppm is over 80%.

Turning to `Cc1nc2cc(C(=O)NC(C)C)c(NC(=O)c3cc(C(F)(F)F)nn3-c3ncccc3Cl)c(Cl)c2nc1C` [Compound T19.1.8, 8-chloro-7-{[2-(3-chloro-pyridin-2-yl)-5-trifluoromethyl-2H-pyrazole-3-carbonyl]-amino}-2,3-dimethyl-quinoxaline-6-carboxylic acid isopropylamide], the inhibition at 400 ppm in series [1] is over 80%.

As to `O=C(NCC1CC1)c1cc2nccnc2c(Cl)c1NC(=O)c1cc(C(F)(F)F)nn1-c1ncccc1Cl` [Compound T1.1.14, 8-chloro-7-{[2-(3-chloro-pyridin-2-yl)-5-trifluoromethyl-2H-pyrazole-3-carbonyl]-amino}-quinoxaline-6-carboxylic acid cyclopropylmethyl-amide], the inhibition at 400 ppm in series [1] and in series [2] was over 80% in each case.

Regarding `CNC(=O)c1cc2nsnc2c(Cl)c1NC(=O)c1cc(C(F)(F)F)nn1-c1ncccc1Cl` [Compound T20.1.2, 7-chloro-6-{[2-(3-chloro-pyridin-2-yl)-5-trifluoromethyl-2H-pyrazole-3-carbonyl]-amino}-benzo[1,2,5]thiadiazole-5-carboxylic acid methylamide], the inhibition at 400 ppm in series [1] and in series [2] was over 80% throughout.

`CNC(=O)c1cc2nc(C(F)(F)F)ccc2c(OC)c1NC(=O)c1cc(C(F)(F)F)nn1-c1ncccc1Cl` [Compound T8.1.121, 6-{[2-(3-Chloro-pyridin-2-yl)-5-trifluoromethyl-2H-pyrazole-3-carbonyl]-amino}-5-methoxy-2-trifluoromethyl-quinoline-7-carboxylic acid methyl amide]: the inhibition at 400 ppm in series [1] and in series [2] was over 80% each time.

As for `Cc1nc2cc(C(=O)NCC3CC3)c(NC(=O)c3cc(C(F)(F)F)nn3-c3ncccc3Cl)c(Cl)c2n1C` [Compound T35.1.14], the melting point was in the range of 233 to 235 °C. In addition, the inhibition at 400 ppm in series [1] is over 80%.
